Assay results taken from patent publication US9200309B2, “Method for screening for S1P lyase inhibitors using cultured cells” (Daiichi Sankyo Company, Limited, priority 2010, dated 2015).
pEC50: −log10 of the molar value. Where two headings read alike, the source gives them in different places.

Columns and labels:
Type in all cases: cell-based
SPL [1] = target: T1, SPL (Mus musculus, UniProt Q8R0X7); assay: Measurement of SPL activity in lysate of cells treated with compound
T1 construct: IT-79MTNC3 cells which are a mouse thymic epithelial cell line can be appropriately selected using the expression of an SPL protein as an index; host or cells: IT-79MTNC3 (mouse thymic epithelial cell line)
T1 sequence (Q8R0X7 1-568): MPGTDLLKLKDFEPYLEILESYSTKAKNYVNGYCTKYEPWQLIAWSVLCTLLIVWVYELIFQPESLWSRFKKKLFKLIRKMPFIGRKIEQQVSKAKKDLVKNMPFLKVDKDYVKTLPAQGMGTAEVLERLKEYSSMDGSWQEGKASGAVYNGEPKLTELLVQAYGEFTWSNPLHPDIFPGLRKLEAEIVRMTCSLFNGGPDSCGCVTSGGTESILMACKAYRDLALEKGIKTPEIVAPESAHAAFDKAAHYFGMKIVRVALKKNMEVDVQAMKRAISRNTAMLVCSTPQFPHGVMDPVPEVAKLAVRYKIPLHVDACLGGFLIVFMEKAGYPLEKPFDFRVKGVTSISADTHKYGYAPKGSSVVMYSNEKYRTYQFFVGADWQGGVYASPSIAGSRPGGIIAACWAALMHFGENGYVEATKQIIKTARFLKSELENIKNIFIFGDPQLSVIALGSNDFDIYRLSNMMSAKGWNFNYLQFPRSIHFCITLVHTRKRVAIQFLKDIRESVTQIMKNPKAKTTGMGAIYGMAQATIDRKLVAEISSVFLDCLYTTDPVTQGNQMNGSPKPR
Protocol: In order to prepare a lysate of cells treated with a test compound, IT-79MTNC3 cells were suspended in DMEM-10% FBS containing 25 μM fumonisin B1 and seeded in a 12-well plate for cell culture at 1×10^5 cells/well, and then cultured at 37° C. in the presence of 5% CO2 for a whole day and night. On the next day, the culture supernatant was first removed, and then, 500 μL of DMEM-0.1% BSA (or VB6-free DMEM-0.1% BSA) containing a serially diluted test compound was added thereto, and the cells were cultured at 37° C. in the presence of 5% CO2 for 4.5 hours. Thereafter, 55 μL of DMEM-0.1% BSA (or VB6-free DMEM-0.1% BSA) containing 10 μM dhSph was added thereto, and the cells were cultured at 37° C. in the presence of 5% CO2 for 30 minutes. After washing the IT-79MTNC3 cells with PBS, the cells were collected. Then, 150 μL of a homogenization buffer was added to the cells, and the resulting mixture was subjected to an ultrasonic treatment using a sonicator, followed by centrifugation at 4° C. for 3 minutes at 1,000 g, and the resulting supernatant was used as a cell lysate. The quantitative determination of protein by the Bradford method was carried out using a portion of the cell lysate. […]
In order to measure the SPL activity in the lysate prepared using the cells treated with the compound, the cell lysate was diluted to 1 mg protein/mL with a homogenization buffer, and the diluted solution was mixed with ^3H-dhS1P (3.4 nM) as a substrate and a reaction buffer (a 0.1 M potassium phosphate solution (pH-7.4), 25 mM NaF, 5 mM Na3VO4, 1 mM EDTA, 1 mM DTT, 0.1% Triton X-100, 2 μM cold dhS1P) to make the final volume 50 μL. […] A 30 μL portion of the resulting organic layer was taken and mixed with 5 mL of the liquid scintillator, and the radioactivity thereof was measured using a liquid scintillation counter. The obtained count was assumed to reflect the amount of degradation products by the SPL reaction, and the SPL activity of each sample was calculated as a ratio of that in the group without treatment with the compound.

SPL [2] = target: T1, SPL; assay: Measurement of intracellular S1P by LC-MS in IT-79MTNC3 cells
Protocol: In order to evaluate the activity of a test compound for accumulating S1P, IT-79MTNC3 cells were suspended in DMEM-10% FBS containing 25 μM fumonisin B1, and seeded in a 24-well plate for cell culture at 5×10^4 cells/well, and then cultured at 37° C. in the presence of 5% CO2 for a whole day and night. On the next day, the culture supernatant was first removed, and then, 450 μL of DMEM-0.1% BSA (or VB6-free DMEM-0.1% BSA) containing a serially diluted test compound was added thereto, and the cells were cultured at 37° C. in the presence of 5% CO2 for 4.5 hours. Thereafter, 50 μL of DMEM-0.1% BSA (or VB6-free DMEM-0.1% BSA) containing 10 μM Sph (Enzo Life Sciences) was added thereto, and the cells were cultured at 37° C. in the presence of 5% CO2 for 30 minutes. After the culture supernatant was removed, the cells were washed with PBS and collected. Then, 150 μL of a mixed solution of acetonitrile and 1 M hydrochloric acid (acetonitrile:hydrochloric acid=4:1) was added to the cells, and the resulting mixture was subjected to an ultrasonic treatment using a sonicator. The amount of S1P was measured by LC-MS by Mitsubishi Chemical Medience Corporation. In the case of using VB6-free DMEM, before the culture medium containing the test compound was added, washing was carried out twice with 600 μL of VB6-free DMEM-0.1% BSA, thereby preventing the carryover of the vitamin B6 group contained in DMEM used when seeding.

SPL [3] = target: T1, SPL; assay: SPA using known SPL inhibitor: accumulation of 3H-dhS1P in IT-79MTNC3 cells; conditions: for pEC50: read-out: EC50, activity of inhibiting the SPL activity
Protocol: A mouse thymic epithelial cell line (IT-79MTNC3 cells, The Cell Bank Division of Japan Health Sciences Foundation) was cultured using Dulbecco's Modified Eagle Medium (DMEM, Invitrogen) containing 10% fetal bovine serum (FBS) (DMEM-10% FBS) at 37° C. in the presence of 5% CO2. When the cells were used for transfection or assay, the cells were detached with 0.05% trypsin-EDTA (Invitrogen), followed by centrifugation, thereby collecting the cells. When the cells were treated with a compound or used for incorporating ^3H-dhSph, DMEM containing 0.1% bovine serum albumin (BSA, Sigma) (DMEM-0.1% BSA) or vitamin B6 group-depleted Dulbecco's Modified Eagle Medium (VB6-free DMEM, Cell Science & Technology Institute, Inc.) containing 0.1% BSA (VB6-free DMEM-0.1% BSA) was used.
In order to evaluate the activity of a test compound for accumulating ^3H-dhS1P, IT-79MTNC3 cells were suspended in DMEM-10% FBS containing 25 μM fumonisin B1, and seeded in a 96-well plate for cell culture at 1×10^4 cells/well, and then cultured at 37° C. in the presence of 5% CO2 for a whole day and night. On the next day, the culture supernatant was first removed, and then, 40 μL of DMEM-0.1% BSA (or VB6-free DMEM-0.1% BSA) containing a serially diluted test compound was added thereto, and the cells were cultured at 37° C. in the presence of 5% CO2 for 4.5 hours. Thereafter, 10 μL of DMEM-0.1% BSA (or VB6-free DMEM-0.1% BSA) containing 83 nM ^3H-dhSph and 5 μM dhSph was added thereto, and the cells were cultured at 37° C. in the presence of 5% CO2 for 30 minutes. After the culture supernatant was removed, 70 μL of a cell lysis buffer was added thereto, and the resulting mixture was left at room temperature for 2 hours. A 50 μL portion of the resulting cell lysate was mixed with SPA beads (obtained by being diluted to 8 times such that glycerol was contained at 50% in the final concentration), which were previously dispensed into a white 96-well plate at 20 μL/well. Then, the plate was covered with a transparent plate seal and left overnight at room temperature under shading. On the next day, the radioactivity thereof was measured using a microplate scintillation counter. In the case of using VB6-free DMEM, before the culture medium containing the test compound was added, washing was carried out twice with 150 μL of VB6-free DMEM-0.1% BSA, thereby preventing the carryover of the vitamin B6 group contained in DMEM used when seeding.

[4] = in the presence of 100 nM pyridoxine

Row | SMILES | activity on SPL activity in the lysate (SPL [1]; VB6-free DMEM, FIG. 5(3)) | activity on SPL activity in the lysate (SPL [1]; normal conditions (DMEM), FIG. 4(3)) | activity on amount of intracellular S1P (SPL [2]; VB6-free DMEM, FIG. 5(2)) | activity on amount of intracellular S1P (SPL [2]; normal conditions (DMEM), FIG. 4(2)) | effective concentration in SPA as compared with normal DMEM (SPL [3]; VB6-free DMEM, FIG. 5(1)) | pEC50 (SPL [3]; [4]) | pEC50 (SPL [3]; in the presence of 1 μM pyridoxine) | pEC50 (SPL [3]; normal DMEM (containing about 20 μM pyridoxine)) | response by SPA (accumulation of 3H-dhS1P) (SPL [3]; normal conditions (DMEM), FIG. 4(1)) | activity in SPA (accumulation of 3H-dhS1P) (SPL [3]; VB6-free DMEM, FIG. 5(1)) | inhibitory activity against the SPL activity (SPL [3]; in the presence 1 μM pyridoxine) | inhibitory activity against the SPL activity (SPL [3]; normal DMEM)
1 | Cc1ncc(CO)c(C)c1O [DOP, 4-deoxypyridoxine] | exhibited their activity in substantially the same concentration range | detected in substantially the same concentration range | exhibited their activity in substantially the same concentration range | detected in substantially the same concentration range | significantly decreased | 7.57 | 5.80 | 4.34 | concentration-dependent response |  |  | 
2 | CC(=O)c1nc(C(O)C(O)C(O)CO)c[nH]1 (stereo not drawn) [THI, 2-acetyl-4-tetrahydroxybutylimidazole] | exhibited their activity in substantially the same concentration range |  | exhibited their activity in substantially the same concentration range |  |  | ~3.60 |  |  |  | concentration-dependent activity was detected | could not be observed | could not be observed
